Reference: US8653086B2, “Naphthamides as anticancer agents” (Oregon Health & Science University, priority 2008, dated 2014)
Where two headings read alike, the source gives them in different places.

Tests used:
[1] = system: A549 cells; test: A549 apoptosis, annexin-V/PI flow cytometry and PARP cleavage; type: cell-based, human; settings: for percentage of cells undergoing apoptosis: 10 μM, 48 h, vehicle 6.3%; for cleavage of poly (ADP-ribose) polymerase (PARP): A549 cells treated with compound
Procedure: (§1) To investigate whether apoptosis was activated upon treatment, A549 cells were treated with either naphthol AS-E phosphate (i, 10 μM) or naphthol AS-E (ii, 10 μM) for 48 h. The cells were then analyzed by flow cytometry after staining with annexin-V and propidium iodide (PI). In this two-dye binding assay, annexin-V will bind phosphatidylserine exposed on the dying apoptotic cell surface while PI will only stain dead cells whose plasma-membrane integrity is compromised. This assay can discriminate intact cells (annexin^−/PI^−), apoptotic cells (annexin^+/PI^−) and necrotic or late apoptotic cells (annexin^+/PI^+).

[2] = Hydrolysis of naphthol AS-E phosphate in tissue culture media (DMEM), HPLC
Procedure: (A) Representative HPLC chromatograms of aliquots of the incubation mixture containing naphthol AS-E phosphate (i, 500 μM), 1-naphthalenemethanol (1 mM) and DMEM with 10% FBS at different time points. […] 1-Naphthalenemethanol was included as an internal standard. The minor peaks on the chromatograms are components from DMEM, which contains various amino acids, vitamins and carbohydrates. (B) Time-dependent increases of naphthol AS-E during the hydrolysis of naphthol AS-E phosphate. The data were extracted from the experiment presented in (A). The concentration of naphthol AS-E was determined based on the calibration curve shown in (C).
Napthol AS-E phosphate was incubated with tissue culture media (Dulbecco's Modified Eagle Medium, DMEM) containing 10% fetal bovine serum (FBS) at 37° C. along with an internal standard, 1-naphthalenemethanol. The hydrolysis of napthol AS-E phosphate was then monitored by reverse phase HPLC at various time points.

[3] = system: primary rat neurons
Procedure: E18 rat neurons were isolated from Sprague-Dawley rats at 18 days after gestation. The isolated neurons were plated into a 6-well plate coated with poly-D-lysine. On day 5 after plating the neurons, different compounds of indicated concentrations were added (in triplicates) and incubated with the neurons for 48 h. Then the neurons were harvested and the number of live neurons was counted with a hemacytometer after staining with trypan blue. Data were presented as mean±SD.
CREB is a pleiotrophic factor involved in many different cellular processes including neuronal survival. The possibility of neuronal cell death might be a concern for CREB inhibitors in the future clinical applications if they could cross the blood brain barrier. Therefore, the toxicity of naphthol AS-E phosphate (i) or its active form, naphthol AS-E (ii), to primary rat neurons was investigated. Isolated E18 rat neurons were treated with increasing concentrations of naphthol AS-E phosphate (i) or naphthol AS-E (ii) for 48 h. […] At the end of the treatment, the neurons were collected and the number of live neurons were counted using trypan blue exclusion assay (FIG. 3).

[4] = system: A549 cells; test: A549 live cell count, trypan blue; type: cell-based, human; settings: 48 h, live cells counted
Procedure: (§2) (A) Inhibitory effect of CREB-mediated gene transcription by compounds i and ii in HEK 293 cells. Cells were transiently transfected with a plasmid encoding firefly luciferase under the control of three iterative copies of CRE (pCRE-Luc). Compound i or ii was added to the transfected cells in triplicate 30 min prior to the addition of forskolin (Fsk, 10 μM). The luciferase activity was measured using Dual Luciferase Reagent (Promega) and normalized to the co-transfected renilla luciferase (pRL-SV40, Promega). (B) Exponentially growing A549 cells in a 6-well plate (1.5×10^5 cells/well) were treated increasing concentrations of compound i or ii in triplicate for 48 h. […] Data were presented as mean±SD.
as §1

[5] = system: CREB-mediated gene transcription; test: CRE firefly luciferase reporter assay in HEK 293 cells; type: cell-based; settings: forskolin 10 μM, normalized to renilla luciferase
Procedure: as §2
In this assay, HEK 293 cells were transiently transfected with a luciferase reporter plasmid which expresses firefly luciferase under the control of three copies of CREB-response element (CRE). Additionally, an internal control plasmid constitutively expressing renilla luciferase was co-transfected to normalize transfection efficiency across the wells. The inhibition flirt-fly luciferase transcription seen in HEK 293 cells by compound i was not due to cell death because the firefly luciferase activity was normalized to renilla luciferase activity and the number of live cells after compound treatment was the same for all the different concentrations tested.

SMILES | percentage of cells undergoing apoptosis [1] [%] | cleavage of poly (ADP-ribose) polymerase (PARP) [1] | hydrolysis of phosphate i to naphthol ii after 25-h incubation ([2]; DMEM with 10% FBS, 37° C.) | period of constant rate of increase of naphthol AS-E ([2]; DMEM with 10% FBS, initial zero-order kinetics) [h] | hydrolysis in tissue culture media without FBS ([2]; DMEM without FBS, 24 h) | neuronal cell death [3] | A549 cell proliferation [4] | inhibition of CREB-mediated gene transcription [5] | neuronal cell death ([3]; E18 rat neurons, 48 h, naphthols up to 10 μM, CPT positive control)
O=C(Nc1ccc(Cl)cc1)c1cc2ccccc2cc1OP(=O)(O)O [naphthol AS-E phosphate] | 22.7 | detected | complete hydrolysis | > 8.5 | did not generate any hydrolysis product | no significant neuronal cell death | inhibited A549 cell proliferation | strongly inhibited | –
O=C(Nc1ccc(Cl)cc1)c1cc2ccccc2cc1O [naphthol AS-E] | 19.8 | detected | – | – | – | – | inhibited A549 cell proliferation | – | no significant neuronal cell death
